Converted amounts (≈) assume the structure as drawn. Marks after values point to notes of the source that are not given here.
How the values were obtained:
[1] = molecular target: T1, PHL (Photorhabdus asymbiotica, UniProt C7BLE4); test: Hemagglutination inhibition assay with PHL (papain-treated human RBCs O); assay type: cell-based; details: for MIC (minimal inhibitory concentration, hemagglutination by PHL): RBC O, two independent measurements; for PotencyL-Fuc / β L-Fuc (affinity improvement factor) / β Azide1 (affinity improvement factor) / PotencyAzide1: hemagglutination; for PotencyL-Fuc: MIC L-fucose / MIC ligand; for β L-Fuc (affinity improvement factor): MICbasic unit/(valency × MICligand), basic unit L-Fuc; for β Azide1 (affinity improvement factor): basic unit azide 1; for PotencyAzide1: relative to azide 1
Description: The set of potential ligands 1–10 with different levels of fucosylation was tested, and their inhibition potency on hemagglutination by PHL was assessed (Table 1, Fig. 2). […] To assess the contribution of valency to the affinity increase, an affinity improvement factor β was calculated as the relationship MICbasic unit/(valency × MICligand).
Human red blood cells (RBCs) O were processed according to previously published work[16]. In brief, RBCs O treated with sodium citrate were washed four times by PBS buffer (137 mM NaCl, 2.7 mM KCl, 8 mM Na2HPO4, 1.47 mM KH2PO4, pH 7.4), diluted to 50% by PBS with 0.005% (w/w) sodium azide and treated by 0.1% papain for the duration of 30 minutes.
Hemagglutination inhibition assay was performed for specificity and semi-quantitative affinity of the PHL interaction with the compounds. All carbohydrate inhibitors in 50 mM starting concentration were serially diluted in the PBS buffer and used for a determination of the lowest inhibiting concentration. As a blank, the PBS buffer supplemented with the appropriate amount of DMSO was used in order to exclude potential interference with the interaction. The individual samples were mixed with the lectin in concentration 2 mg/ml in a 5 μl:5 μl ratio. Thereafter, 10 μl of 10% RBCs O in PBS buffer was added, thoroughly mixed and incubated for 10 minutes at room temperature. Following incubation, the mixture was again mixed and the reaction was observed on microscope slides using Levenhuk 2L NG microscope with Levenhuk D2L digital camera (Levenhuk, USA). Imagines were obtained via software ToupView for Windows (Levenhuk). The positive (PHL without inhibitor) and negative control (reaction without PHL) were prepared and processed in the same way using the appropriate volume of PBS buffer instead of the not included components. The lowest concentration of inhibitor able to inhibit agglutination was determined and compared with the standard (L-fucose). Minimal inhibitory concentrations (MIC) of synthesised inhibitors were determined from two independent measurements.

[2] = molecular target: T1, PHL; test: SPR competitive inhibition of PHL binding to α-L-fucoside sensor chip; details: for IC50: 25 °C, three independent measurements; for β L-Fuc (affinity improvement factor): IC50,basic unit/(valency × IC50,ligand), basic unit L-Fuc; for PotencyL-Fuc: IC50 L-fucose / IC50 ligand
Description: To analyse the competitive inhibition of PHL binding to a multivalent surface, the surface plasmon resonance (SPR) technique was employed. A sensor chip presenting α-L-fucopyranoside residues was treated with a constant concentration of PHL, while an increasing concentration of the ligands was used to determine IC50 (Table 2, Fig. 3). […] To assess the contribution of valency to the affinity increase, an affinity improvement factor β was calculated as the relationship IC50,basic unit/(valency × IC50,ligand)[30].
Surface plasmon resonance (SPR) experiments were performed on a BIAcore T200 instrument (GE Healthcare, UK) at 25 °C, using buffer A supplemented with 0.05% Tween 20 as a running buffer. α-L-fucoside was immobilized onto CM5 sensor chip (GE Healthcare, UK) covered with a carboxymethylated dextran matrix. The sensor chip surface was activated with N-ethyl-N-(3-dimethylaminopropyl)carbodiimide/N-hydroxysuccinimide solution and then coated with streptavidin using the manufacturer’s standard protocol using HBS buffer (10 mM HEPES, 150 mM NaCl, 0.05% Tween 20, pH 7. 5). Unreacted groups were blocked with 1 M ethanolamine-HCl, pH 8.5. Biotinylated carbohydrate (biotinilated monomeric probes, Lectinity, Russia) was injected onto particular measuring channel and pure biotin on blank channel at a flow rate of 5 μl/min.
SPR inhibition measurements were carried out on measuring channel with L-fucoside at a flow rate of 5 µl/min. PHL was diluted to a concentration of 20 μg/ml by the buffer A supplemented with 0.05% Tween 20, mixed 1:1 (v/v) with various concentrations of inhibitors (500–5 μM) in the same buffer and injected onto the sensor chip. The response of lectin bound to the sugar surface at equilibrium was plotted against the concentration of inhibitor in order to determine IC50 (concentration of inhibitor resulting in 50% inhibition of binding). As IC50 is not a constant and depends on the experimental set-up, a parameter called potency was used for characterization. The potency of a tested inhibitor is the ratio of IC50 of a chosen standard inhibitor (in this case L-fucose) and the inhibitor in question. Pure PHL lectin was used as a control (0% inhibition) and channel with pure biotin served as a blank. IC50 was determined from triplicates.

[3] = tested on: P. asymbiotica subsp. australis cells; test: Cell aggregation (cross-linking) assay; assay type: cell-based, Photorhabdus asymbiotica subsp. australis; details: three independent measurements
Description: Because of the aggregation of PHL by calixarenes and dendrimers during SPR and ITC experiments, we decided to compare tetravalent compounds at a higher level. We performed a series of in vitro aggregation assays to reveal their aggregation properties towards P. asymbiotica subsp. australis (Table 4, Fig. 5). Prior to each assay, we confirmed the absence of aggregates in two negative controls – bacterial cells in PBS buffer and in the presence of azide 1 as a monomer. With all chosen compounds, we observed bacterial aggregates of a variable size that confirmed that they are capable of interacting with a cell surface. This effect may be caused by interaction of the multivalent inhibitors with PHL or other receptors. The concentration of the first appearance of aggregates varied according to the nature of the ligand used. […] An unexpected observation was that calixarene 7 had the lowest aggregation potential. In contrast to other techniques (hemagglutination, SPR and ITC), where calixarenes 6 and 7 provided similar results, during cross-linking experiments calixarene 7 was four times worse than calixarene 6. At the same time, both tetrameric calixarenes 6 and 7 are in a 1,3-alternate conformation with the two-faced presentation of the fucopyranosyl epitopes on opposite regions probably occupying a similar spatial orientation. The only difference is the tert-Bu group on the upper rim in calixarene 6, which might contribute to nonpolar interactions with whole P. asymbiotica cells.
P. asymbiotica subsp. australis was inoculated from stock cells stored at −80 °C into a standard LB media and were grown in 30 °C under an orbital shaking overnight. Bacterial growth was tracked by measuring the optical density of the broth at 600 nm (OD600) using a spectrophotometer (Biochrom Ltd., BioPhotometer WGA CO 8000 Biowave). Cells were harvested when reaching an OD600 = 0.5. The culture was centrifuged at 4,300 g and room temperature for 2 minutes (Minispin, Eppendorf, Germany) and cells were then washed three times with PBS buffer. Cells were diluted in PBS to OD600 of 2.0 and kept in a fridge until performing the aggregation assay.
P. asymbiotica subsp. australis cells and fucosylated compounds in a concentration ranging from 50 mM to 3.125 mM were gently mixed in a 9:1 (v/v) ratio. The reaction mixtures were left at room temperature for 10 minutes. 5 µl of reaction mixture was then transferred onto a microscope slide and observed under a fluorescence microscope (OLYMPUS IX81 Microscope IX81F-3 with IX2-UCB-2 Controller and X-Cite 120PC Q; Olympus and Excelitas Technologies, Japan, resp. USA). As a negative control, bacterial cells with/without azide 1 as a monomer were used. Three independent measurements were performed.

[4] = molecular target: T1, PHL; test: Isothermal titration calorimetry of PHL with ligands; assay type: binding; details: for n (stoichiometry): two independent measurements; for Potency L-Fuc: KD L-fucose / KD ligand; for β L-Fuc (affinity improvement factor): KD,basic unit/(valency × KD,ligand), basic unit L-Fuc
Description: The binding of PHL to different α-L-fucoside compounds was further characterized by isothermal titration calorimetry (ITC), enabling determination of the complete thermodynamic profile of the molecular interactions (Table 3, Fig. 4). […] Because of this, it was not possible to evaluate the data, despite the obvious interaction. The dendrimers also cross-linked/aggregated the protein as with calixarenes, however the curves provided clear outcomes with an affinity in the low micromolar range. The dissociation constants (KD) of all dendrimers correlate with their valency – the higher number of fucose, the more decreased KD. […] The stoichiometry value n corresponds to the number of terminal fucoses per ligand molecule. The n value decreases from 4 to 1 as the number of fucose units increases from 1 to 12 (Table 3).
PHL protein in buffer A was equilibrated at room temperature at least for 30 min before ITC measurement. All ITC experiments were performed using ITC200 calorimeter (Malvern Panalytical, UK) at 25 °C. Carbohydrate ligands dissolved in buffer A were used at different concentrations. Protein in the calorimeter cell (50 μM) was titrated by consecutive additions (2 μl) of the ligand (1.5–5 mM) in the syringe while stirring at 1000 rpm. Integrated heat effects were analysed by nonlinear regression using a single-site binding model and global fitting in Origin 7 software (Microcal Instruments)[37]. The thermodynamic parameters of synthesised inhibitors were determined from two independent measurements.

T1 sequence (C7BLE4 entry or part of it): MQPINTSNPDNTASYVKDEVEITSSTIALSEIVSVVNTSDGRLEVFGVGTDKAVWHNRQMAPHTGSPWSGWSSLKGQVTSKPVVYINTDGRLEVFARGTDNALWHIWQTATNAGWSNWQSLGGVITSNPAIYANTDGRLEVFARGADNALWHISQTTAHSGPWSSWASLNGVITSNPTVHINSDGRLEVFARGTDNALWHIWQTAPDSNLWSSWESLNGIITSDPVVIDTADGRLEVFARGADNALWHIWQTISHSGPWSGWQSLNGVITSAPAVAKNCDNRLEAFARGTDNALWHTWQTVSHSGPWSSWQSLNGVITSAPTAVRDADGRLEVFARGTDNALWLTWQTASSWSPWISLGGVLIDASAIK

Row | Structure (SMILES) | MIC (minimal inhibitory concentration, hemagglutination by PHL) [1] | PotencyL-Fuc [1] | β L-Fuc (affinity improvement factor) [1] | β Azide1 (affinity improvement factor) [1] | PotencyAzide1 [1] | IC50 [2] | β L-Fuc (affinity improvement factor) [2] | PotencyL-Fuc [2] | β Azide1 (affinity improvement factor) ([2]; basic unit azide 1) | PotencyAzide1 ([2]; relative to azide 1) | Kd ([4]; ITC at 25 °C) | −TΔS ([4]; ITC at 25 °C) | −ΔG ([4]; ITC at 25 °C) | −ΔH ([4]; ITC at 25 °C) | n (stoichiometry) ([4]; ITC at 25 °C) | Potency L-Fuc ([4]; ITC) | β L-Fuc (affinity improvement factor) ([4]; ITC) | also measured
1 | C[C@@H]1O[C@@H](CCn2cc(COc3c4cc(C(C)(C)C)cc3Cc3cc(C(C)(C)C)cc(c3OCc3cn(CC[C@@H]5O[C@@H](C)[C@@H](O)[C@@H](O)[C@@H]5O)nn3)Cc3cc(C(C)(C)C)cc(c3OCc3cn(CC[C@@H]5O[C@@H](C)[C@@H](O)[C@@H](O)[C@@H]5O)nn3)Cc3cc(C(C)(C)C)cc(c3OCc3cn(CC[C@@H]5O[C@@H](C)[C@@H](O)[C@@H](O)[C@@H]5O)nn3)C4)nn2)[C@@H](O)[C@H](O)[C@@H]1O [Calixarene 6] | 100 µM (≈ 167 µg/mL) | 31.3 | 7.8 | 0.5 | 2 | 0.195 ± 0.023 µM | 464 | 1,853 | 15 | 59 |  |  |  |  |  |  |  | β Azide1 (affinity improvement factor) ([2]; basic unit azide 1, listed as calixarene 6): approximately 15; The lowest concentration able to aggregate P. asymbiotica cells [3]: 1.25 mM
2 | C[C@@H]1O[C@@H](CCn2cc(COCC(COCc3cn(CC[C@@H]4O[C@@H](C)[C@@H](O)[C@@H](O)[C@@H]4O)nn3)(COCc3cn(CC[C@@H]4O[C@@H](C)[C@@H](O)[C@@H](O)[C@@H]4O)nn3)COCC(COCc3cn(CC[C@@H]4O[C@@H](C)[C@@H](O)[C@@H](O)[C@@H]4O)nn3)(COCc3cn(CC[C@@H]4O[C@@H](C)[C@@H](O)[C@@H](O)[C@@H]4O)nn3)COCc3cn(CC[C@@H]4O[C@@H](C)[C@@H](O)[C@@H](O)[C@@H]4O)nn3)nn2)[C@@H](O)[C@H](O)[C@@H]1O [Dendrimer 9] | 25 µM (≈ 44.6 µg/mL) | 125 | 20.8 | 1.3 | 8 | 0.037 ± 0.003 µM | 1,631 | 9,762 | 52 | 311 | 12.5 ± 0.6 µM | 10.4 ± 0.382 kcal/mol | 6.69 ± 0.311 kcal/mol | 17.1 ± 0.19 kcal/mol | 2.0 ± 0.0 | 112 | 19 | PotencyL-Fuc ([1]; listed as dendrimer 9): more than 100; β L-Fuc (affinity improvement factor) ([2]; listed as dendrimer 9): over 1,600; PotencyL-Fuc ([2]; listed as dendrimer 9): 9,800; PotencyAzide1 ([2]; relative to azide 1, listed as dendrimer 9): 310; Kd ([4]; ITC at 25 °C, listed as hexavalent dendrimer): 13 µM; β Azide1 (affinity improvement factor) ([4]; ITC, basic unit azide 1): 1; PotencyAzide1 ([4]; ITC, relative to azide 1): 8
3 | C[C@@H]1OC(CCCCC2O[C@@H](C)[C@@H](O)[C@@H](O)[C@@H]2O)[C@@H](O)[C@H](O)[C@@H]1O (stereo partly drawn) [Difucoside 5, 1,4-bis(fucopyranosyl)butane] | 200 µM (≈ 70.1 µg/mL) | 15.6 | 7.8 |  |  | 4.18 ± 0.42 µM | 43 | 86 |  |  | 120 ± 11 µM | 3.61 ± 0.789 kcal/mol | 5.35 ± 0.502 kcal/mol | 8.96 ± 0.621 kcal/mol | 3.9 ± 0.2 | 12 | 6 | PotencyL-Fuc ([1]; listed as difucoside 5): 16
4 | C[C@H](O)[C@@H](O)[C@@H](O)[C@H](O)C=O [L -Fuc, L-fucose, reference compound] | 3,200 μM | 1 | 1 |  |  | 362 ± 33 µM | 1 | 1 |  |  | 1400 µM | 10.3 ± 0.239 kcal/mol | 3.9 ± 0.096 kcal/mol | 14.2 ± 0.239 kcal/mol |  | 1 | 1 | n (stoichiometry), fixed during the fitting procedure ([4]; ITC at 25 °C, fixed value based on α-Me-Fuc measurement and PHL/BGH crystal structure): 3*

Reference: article PMC6797808, “Fucosylated inhibitors of recently identified bangle lectin from Photorhabdus asymbiotica” (Scientific Reports, 2019)
